# Like-named read-outs stand apart in the source and are kept apart here.
# Columns and labels:
# [1] = biological target: T1, CYP3A4 (testosterone/midazolam) (Homo sapiens, UniProt P08684); assay: CYP inhibition assay in human liver microsomes; format: in vitro ADME
# T1 construct: co-incubated with human liver microsomes; from tissue; host or cells: human liver microsomes
# Procedure: (§1) Test Example 3: CYP Inhibition Assay
# (§2) An in vitro assay system was used to evaluate the effects of the compounds on the activities of several human liver microsomal cytochrome P450 (CYP) isozymes (CYP1A2, CYP2C9, CYP2D6, CYP3A4 (testosterone/midazolam), CYP2C19, and CYP2C8). Specific probe substrates for CYP450 isozymes were co-incubated with human liver microsomes and the compound at various concentrations (0, 0.0300, 0.100, 0.300, 1.00, 3.00, 10.0 µM). The reaction was initiated by adding the coenzyme NADPH. After the reaction was completed, the samples were processed, and the metabolites generated from the probe substrates were detected by liquid chromatography-tandem mass spectrometry (LC-MS/MS). Based on the resulting dose-response curves, the IC50 values of the test compounds for the probe substrate reactions catalyzed by each CYP isozyme were calculated.
# [2] = biological target: T2, CYP2C9 (Homo sapiens, UniProt P11712); assay: CYP inhibition assay in human liver microsomes; format: in vitro ADME; settings: human liver microsomes, NADPH; read-out: CYPs 2C9 (IC50)
# T2 construct: co-incubated with human liver microsomes; from tissue; host or cells: human liver microsomes
# Procedure: as §1, §2
# [3] = biological target: T3, CYP2C8 (Homo sapiens, UniProt P10632); assay: CYP inhibition assay in human liver microsomes; format: in vitro ADME; settings: human liver microsomes, NADPH; read-out: CYPs 2C8 (IC50)
# T3 construct: co-incubated with human liver microsomes; from tissue; host or cells: human liver microsomes
# T3 sequence (P10632 1-490): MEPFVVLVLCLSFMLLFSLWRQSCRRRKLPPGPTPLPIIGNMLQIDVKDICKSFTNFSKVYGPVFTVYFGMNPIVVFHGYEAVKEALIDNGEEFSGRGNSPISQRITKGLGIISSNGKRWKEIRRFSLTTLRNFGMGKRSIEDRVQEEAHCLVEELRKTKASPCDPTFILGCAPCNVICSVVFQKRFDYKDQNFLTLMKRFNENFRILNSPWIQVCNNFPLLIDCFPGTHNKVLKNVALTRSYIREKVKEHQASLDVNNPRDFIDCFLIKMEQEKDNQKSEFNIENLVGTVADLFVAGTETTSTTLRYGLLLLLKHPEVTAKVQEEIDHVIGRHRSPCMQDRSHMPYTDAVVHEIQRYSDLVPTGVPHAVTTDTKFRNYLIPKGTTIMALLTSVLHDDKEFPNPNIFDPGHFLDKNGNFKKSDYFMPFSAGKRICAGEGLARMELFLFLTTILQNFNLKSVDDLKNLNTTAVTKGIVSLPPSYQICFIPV
# Procedure: as §1, §2
# [4] = biological target: T4, CYP2C19 (Homo sapiens, UniProt P33261); assay: CYP inhibition assay in human liver microsomes; format: in vitro ADME; settings: human liver microsomes, NADPH; read-out: CYPs 2C19 (IC50)
# T4 construct: co-incubated with human liver microsomes; from tissue; host or cells: human liver microsomes
# Procedure: as §1, §2
# [5] = tested on: 22RV1 cells; assay: Cell proliferation inhibition assay in 22RV1 cells (CellTiter-Glo, 7 days); format: cell-based, human; settings: Homo sapiens, 22Rv1, 168 h
# Summary of the method: (§3)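 LNCaP and 22RV1 human prostate cancer cells, 3000 per well, exposed to graded compound for 7 days at 37°C, 5% CO2; LNCaP got 0.2 nM DHT 1 h after compound. Viability by CellTiter-Glo luminescence; IC50 from four-parameter variable-slope fit.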
# [6] = Mouse pharmacokinetic test; format: in vivo, ICR mice; settings: plasma; for Tmax: read-out: Tmax; for bioavailability: PO-30mpk vs IV-0.5mpk
# Summary of the method: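 Male naive ICR mice (25–30 g, n=3 per route) received a single intravenous or oral dose, with feeding resumed 4 h post-dose. Blood was centrifuged at 4°C, and plasma was stored at -80°C until analysis.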
# [7] = tested on: LNCaP cells; assay: Cell proliferation inhibition assay in LNCaP cells (0.2 nM DHT, CellTiter-Glo, 7 days); format: cell-based, human; settings: Homo sapiens, LNCaP, 168 h
# Summary of the method: as §3
# [8] = probe substrate midazolam, read-out: CYPs 3A4 (Midazolam) (IC50)
# [9] = probe substrate testosterone, read-out: CYPs 3A4 (Testosterone) (IC50)
# T1 sequence (P08684 whole entry): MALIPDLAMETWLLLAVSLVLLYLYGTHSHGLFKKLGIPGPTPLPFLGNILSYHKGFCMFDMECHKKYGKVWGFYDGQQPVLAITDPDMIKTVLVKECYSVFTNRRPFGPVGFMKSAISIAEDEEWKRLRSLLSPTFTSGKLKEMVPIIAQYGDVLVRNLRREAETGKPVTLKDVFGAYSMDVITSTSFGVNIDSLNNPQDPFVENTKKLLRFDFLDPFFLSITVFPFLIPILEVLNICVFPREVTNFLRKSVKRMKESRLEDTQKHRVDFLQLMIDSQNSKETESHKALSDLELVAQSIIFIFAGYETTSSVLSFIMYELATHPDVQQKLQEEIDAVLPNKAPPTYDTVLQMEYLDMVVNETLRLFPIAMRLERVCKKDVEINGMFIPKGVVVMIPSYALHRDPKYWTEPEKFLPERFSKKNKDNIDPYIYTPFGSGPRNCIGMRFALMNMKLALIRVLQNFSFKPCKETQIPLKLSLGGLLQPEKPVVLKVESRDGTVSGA
# T2 sequence (P11712 whole entry): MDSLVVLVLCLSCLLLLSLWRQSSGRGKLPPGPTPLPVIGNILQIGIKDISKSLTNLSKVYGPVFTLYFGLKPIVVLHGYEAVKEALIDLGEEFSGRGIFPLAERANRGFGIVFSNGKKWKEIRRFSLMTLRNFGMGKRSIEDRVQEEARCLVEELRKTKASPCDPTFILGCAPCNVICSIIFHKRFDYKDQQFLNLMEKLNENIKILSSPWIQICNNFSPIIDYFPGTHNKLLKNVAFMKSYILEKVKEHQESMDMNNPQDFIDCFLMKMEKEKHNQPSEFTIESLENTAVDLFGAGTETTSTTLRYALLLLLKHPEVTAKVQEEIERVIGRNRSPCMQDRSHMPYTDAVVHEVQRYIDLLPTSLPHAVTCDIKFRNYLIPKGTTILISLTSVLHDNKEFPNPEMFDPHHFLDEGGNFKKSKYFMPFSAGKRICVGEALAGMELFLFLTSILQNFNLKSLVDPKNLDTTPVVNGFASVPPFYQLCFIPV
# T4 sequence (P33261 whole entry): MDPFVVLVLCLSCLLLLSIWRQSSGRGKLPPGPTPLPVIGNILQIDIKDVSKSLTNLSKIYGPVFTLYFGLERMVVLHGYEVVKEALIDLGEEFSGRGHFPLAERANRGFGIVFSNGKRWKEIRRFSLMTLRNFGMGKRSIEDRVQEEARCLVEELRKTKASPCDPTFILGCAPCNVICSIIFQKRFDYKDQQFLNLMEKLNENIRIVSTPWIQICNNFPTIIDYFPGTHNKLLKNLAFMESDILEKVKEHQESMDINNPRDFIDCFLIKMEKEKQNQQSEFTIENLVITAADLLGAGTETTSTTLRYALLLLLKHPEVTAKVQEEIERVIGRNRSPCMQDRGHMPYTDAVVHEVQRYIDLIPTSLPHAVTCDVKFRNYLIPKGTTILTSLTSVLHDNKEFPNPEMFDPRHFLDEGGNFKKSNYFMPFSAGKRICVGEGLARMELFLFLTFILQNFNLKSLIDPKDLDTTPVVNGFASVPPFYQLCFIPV
Compound,"IC50 [1, 8] [µM]","IC50 [1, 9] [µM]",IC50 [2] [µM],IC50 [3] [µM],IC50 [4] [µM],IC50 [5] [µM],"AUC(0-inf) ([6]; po, 30 mg/kg, PO-30mpk) [µg·h/mL]","Cmax ([6]; po, 30 mg/kg, PO-30mpk) [ng/mL]","half-life ([6]; po, 30 mg/kg, PO-30mpk) [h]","Tmax ([6]; po, 30 mg/kg, PO-30mpk) [h]",IC50 [7] [µM],"C0 ([6]; 0.5 mg/kg, IV-0.5mpk) [ng/mL]","clearance ([6]; 0.5 mg/kg, IV-0.5mpk) [mL/min/kg]",bioavailability ([6]; 30 mg/kg) [%],"AUC(0-inf) ([6]; iv, 0.5 mg/kg, IV-0.5mpk) [µg·h/mL]","half-life ([6]; iv, 0.5 mg/kg, IV-0.5mpk) [h]"
CC(C)(c1ccc(-c2ccc(OCc3ccnc(N=S4(=O)CCCC4)n3)cc2)cc1)c1cnc2c(cnn2CCCl)c1 [Compound 46],4.5,> 10,6.7,> 10,> 10,0.59,220,20700,3.58,4,,,,,,
CC(C)(c1ccc(-c2ccc(OC3CCN(c4ccnc(P(C)(C)=O)n4)CC3)cc2)cc1)c1cc(Cl)c(OCCCl)c(C#N)c1 [Compound 48],> 10,> 10,5.4,1.7,> 10,0.44,358,13000,18,4,,,,,,
CC(C)(c1ccc(-c2cnc(OCc3ccc(-c4ccc(P(C)(C)=O)nn4)cc3)cn2)cc1)c1cc(Cl)c(OCCCl)c(C#N)c1 [Compound 380],> 10,> 10,> 10,> 10,> 10,0.23,,,,,0.15,,,,,
CC(C)(c1ccc(-c2ccc(OCC3CC(CN4CC(S(C)(=O)=O)C4)C3)cc2)cc1)c1cc(Cl)c(OCCCl)c(C#N)c1 (stereo not drawn) [Compound 302],> 10,> 10,> 10,> 10,> 10,1.41,,,,,,,,,,
CC(C)(c1ccc(-c2ccc(OCc3ccnc(N4CCC(S(C)(=O)=O)CC4)n3)cc2)cc1)c1cc(Cl)c(OCCCl)c(C#N)c1 [Compound 94],> 10,> 10,> 10,> 10,> 10,0.49,,,,,0.79,,,,,
CC(C)(c1ccc(-c2ccc(OCc3ccnc(N4CC(S(C)(=O)=O)C4)n3)cc2)cc1)c1cc(Cl)c(OCCCl)c(C#N)c1 [Compound 53],> 10,> 10,> 10,> 10,> 10,0.28,421,13200,28.1,4,,2100,0.59,68.4,10.2,33.6
CC(C)(c1ccc(-c2ccc(OCc3ccnc(N4CC5(CCS(=N)(=O)CC5)C4)n3)cc2)cc1)c1cc(Cl)c(OCCCl)c(C#N)c1 [Compound 289],> 10,> 10,> 10,> 10,> 10,0.83,240,10000,10.7,4,,,,,,
CC(C)(c1ccc(-c2ncc(OCc3cnc(-c4cnc(P(C)(C)=O)nc4)cn3)cn2)cc1)c1cc(Cl)c(OCCCl)c(C#N)c1 [Compound 403],> 10,> 10,> 10,1.3,> 10,,,,,,0.26,,,,,
CC(C)(c1ccc(-c2ccc(OCc3ccnc(N4CC(S(C)(=O)=O)C4)n3)nc2)cc1)c1cc(Cl)c(OCCCl)c(C#N)c1 [Compound 207],> 10,> 10,> 10,> 10,> 10,0.34,446,33900,9.8,3,,1620,1.1,97.7,7.61,16.1
CC(C)(c1ccc(-c2ncc(OCc3ccnc(N4CC(S(C)(=O)=O)C4)n3)cn2)cc1)c1cc(Cl)c(OCCCl)c(C#N)c1 [Compound 379],> 10,> 10,> 10,> 10,> 10,0.68,,,,,0.12,,,,,
CC(C)(c1ccc(-c2ccc(OCc3ccnc(N=S4(=O)CCCC4)n3)cc2)cc1)c1cc(Cl)c(OCCCl)c(C#N)c1 [Compound 7],> 10,> 10,7.3,> 10,,0.46,161,12300,5,3.3,,,,,,
CC(C)(c1ccc(-c2ccc(OCc3ccnc(N4CC5(CC(P(C)(C)=O)C5)C4)n3)cc2)cc1)c1cc(Cl)c(OCCCl)c(C#N)c1 [Compound 61],> 10,> 10,> 10,> 10,> 10,0.38,242,15600,7.6,6,,,,,,
CC(C)(c1ccc(-c2ccc(OC3CCN(c4ccnc(N=S5(=O)CCCC5)n4)CC3)cc2)cc1)c1cc(Cl)c(OCCCl)c(C#N)c1 [Compound 65],> 10,> 10,> 10,4.3,> 10,1.18,,,,,,,,,,
CC(C)(c1ccc(-c2ccc(OCc3ccnc(N4CC5(CCS(=O)(=O)CC5)C4)n3)cc2)cc1)c1cc(Cl)c(OCCCl)c(C#N)c1 [Compound 177],> 10,> 10,> 10,> 10,> 10,0.21,558,17800,33.7,6,,,,,,
CC(C)(c1ccc(-c2ccc(OCc3ccnc(N4CC5(CCS5(=O)=O)C4)n3)cc2)cc1)c1cc(Cl)c(OCCCl)c(C#N)c1 [Compound 176],> 10,> 10,> 10,> 10,> 10,0.39,407,21300,19.6,4,,,,,,

# Reference: EP4778922A1, “BICYCLIC COMPOUND, AND PREPARATION METHOD THEREFOR AND PHARMACEUTICAL USE THEREOF” (Shanghai Jeyou Pharmaceutical Co., Ltd., priority 2023, dated 2025)
